{
  "source": "paper PMC6156508",
  "about": "“GA-Hecate antiviral properties on HCV whole cycle represent a new antiviral class and open the door for the development of broad spectrum antivirals” (Scientific Reports, 2018)",
  "key": {"HCV JFH1 3' UTR dsRNA": {"test_system": "HCV JFH1 3' UTR dsRNA", "test": "dsRNA intercalation assay (agarose gel)", "type": "binding, hepatitis C virus", "settings": "peptide 20 μM; 45 min; 1% agarose gel", "excerpt": "scans, with a resolution of 0.2 nm. To investigate the conformational changes by the membrane environments, the data were obtained in vesicles containing POPC:POPS (9:1), and POPC:Cholesterol (9:1). CD spectra were typically recorded as an average of the eight scans that were obtained in millidegrees and converted to molar ellipticity [θ] in deg·cm2·dmol-1. The peptide concentration was 10 μmol·L-1, and the proportion of lipid/peptide was 100 (L/P = 100).\nEffect of peptides on dsRNA intercalation assay\nTo assess GA-Hecate’s dsRNA intercalation capacity, we performed an assay adapted from Krawczyk et al. 2009. Initially, a PCR reaction was made and the HCV JFH1 3’ untranslated region (UTR) (accession no. AB047639) was amplified by specific primers flanked by a T7 promoter sequence (F\n273 bp, was purified using a ZymocleanTM Gel DNA recovery Kit (Zymo Research) and used as a template for in vitro dsRNA production using a T7 Ribomax Express kit (Promega). […] GA-Hecate, Hecate and Lys-Hecate (20 μM) were incubated with […] of dsRNA, for 45 min, and subsequently analysed in 1% agarose gel 1X TAE stained with ethidium bromide. […]\nIn order to guarantee that the virus inhibition effect was not related exclusively to cell death trigger, all concentrations were evaluated to necrosis and apoptosis induction. […]"}, "[1]": {"test": "Permeabilization of LUVs, carboxyfluorescein release (lipid droplet mimetic)", "settings": "POPC:Cholesterol 9:1", "excerpt": "Figure 8 Permeabilization of LUVs. (A) Percentage of carboxyfluorescein release in POPC:POPS (9:1) Post addition of LUVs at different concentrations of Hecate and GA-Hecate. (B) Percentage of carboxyfluorescein release results in POPC:Cholesterol (9:1) LUVs after the addition of different concentrations of Hecate and GA-Hecate. The bars indicate SD.\nPhosphatidylcholine:Cholesterol (POPC:Cholesterol - 9:1; m:m) and phosphatidylcholine:phosphatidylserine (POPC:POPS - 9:1; m:m) vesicles, which mimic lipid droplets and the virus envelope, respectively, were prepared at a concentration of 15 mmol·L^−1. Each mixture was submitted to lipid solubilization in chloroform/methanol (4:1; v:v) and subsequent evaporation by nitrogen gas flow, resulting in the formation of a lipid film. The product evaporated using a vacuum procedure for complete removal of the solvents and then a solution containing the fluorophore carboxyfluorescein (CF; 50 mM) was added. The mixture was warmed up to 60 °C, sonicated and agitated for equal periods for 10 min to allow for the formation of vesicles encapsulated with CF. Following this, the mixture was processed in an extruder machine (Avanti Polar Lipids) to obtain large unilamellar vesicles. The obtained solution was then applied to a size exclusion column with Sephadex G20 resin for separation of the unencapsulated CF. […]"}, "[2]": {"test_system": "Huh-7.5 cells harboring SGR-JFH-1 Feo", "test": "MTT cytotoxicity in hepatocytes", "type": "cell-based, human", "excerpt": "Figure 2 Hecate and its derivative-peptide effects on subgenomic HCV genotype 2a replication and hepatotoxicity. (A) Hecate. (B) Lys- Hecate. (C) GA-Hecate. (D) GA2-Hecate. (E) Acetyl-Hecate. (F) Glu-Hecate. Luciferase assays report HCV replication and MTT assays report the viability of Huh-7.5 cells harboring SGR-JFH-1 Feo under peptide treatment. Water was used as a negative control of virus replication inhibition and cell death (Control (−)), and Cyclosporine A was used as a positive control for virus replication inhibition (Control (+)). Red dotted lines represent the arbitrary threshold of 80% cell viability, and blue dotted lines represent the maximum inhibition presented by Hecate at the maximum safe concentration. Bars represent triplicates of the three independent assays. ***P < 0.01 vs control (−).\nPeptide cytotoxicity profiles were measured by the MTT [3-(4,5-dimethylthiazol- 2-yl)-2,5-diphenyl tetrazolium bromide] (Sigma–Aldrich) method. Twenty-four hours before treatment, 5 × 10^3 SGR-harboring cell lines (SGR-Feo-JFH-1 or S52/SG-neo) were cultured with supplemented DMEM in a 96-multi-well plate and incubated at 37 °C in a humidified 5% CO2 incubator. On the subsequent day, peptide-containing medium was added at the following final concentrations: 2.5, 5, 10 and 20 μM. The tested peptides were Hecate and its derivatives, which included the following: lysine addition (Lysine-Hecate/Lys-Hecate); one or two molecules of Gallic Acid (GA-Hecate and GA2-Hecate); one acetyl radical (Acetyl-Hecate) or Glutamic acid (Glu-Hecate). After 48 h of incubation, peptide-media was removed, and MTT at a final concentration of 1 mg/mL was added to the wells, incubated for 30 minutes and subsequently replaced by 100 μL of DMSO. Absorbance was measured at 562 nm, using a plate spectrophotometer (FLUOstar Omega/BMG LABTECH, Offenburg, BW, DE). Cell viability was calculated considering water-treated cells (peptides diluent) as a negative control. All experiments were performed in triplicate and in three independent replicates. Further assays were performed considering at least 80% viability of the treated cells.\nGA-Hecate toxicity and viral inhibition profile in 24, 48 and 72h post-treatment in […]\nGA-Hecate toxicity and viral inhibition capacity were evaluated at 24, 48 and 72h post-treatment. Tested concentrations were 1.25; 2.5; 5; 10; 20; and 40 µM. At the end of every incubation, cells were stained using MTT as previously described. Similarly, at every time point, treated cells were lysed using PLB and summited to Luminescence analysis as previously described. […]"}},
  "note": "Where a SMILES comes first, the peptide text is derived from it. The star is where a group is joined. Galloyl = O=C(c1cc(O)c(O)c(O)c1)*",
  "data": [
    {"smiles": "CC(C)C[C@H](NC(=O)[C@H](C)NC(=O)[C@H](CCCCN)NC(=O)[C@H](CCCCN)NC(=O)[C@H](CC(C)C)NC(=O)[C@H](C)NC(=O)[C@H](CCCCN)NC(=O)[C@H](CCCCN)NC(=O)[C@H](CC(C)C)NC(=O)[C@H](CCCCN)NC(=O)[C@H](CCCCN)NC(=O)[C@H](CC(C)C)NC(=O)[C@H](C)NC(=O)[C@H](CCCCN)NC(=O)[C@H](CCCCN)NC(=O)[C@H](CC(C)C)NC(=O)[C@H](C)NC(=O)[C@H](CCCCN)NC(=O)[C@H](CC(C)C)NC(=O)[C@H](C)NC(=O)[C@H](CC(C)C)NC(=O)[C@H](C)NC(=O)[C@H](Cc1ccccc1)NC(=O)c1cc(O)c(O)c(O)c1)C(N)=O", "note": "[GA-Hecate] (Galloyl-FALALKALKKALKKLKKALKKAL-NH2)", "values": [
      {"measurement": "intercalation in HCV dsRNA", "setting": "HCV JFH1 3' UTR dsRNA", "result": "able to intercalate in HCV dsRNA"},
      {"measurement": "permeabilization effect relative to Hecate (fold higher)", "setting": "[1]", "result": "approximately 2 fold"},
      {"measurement": "permeabilization of LUVs (carboxyfluorescein release)", "setting": "[1]; peptide 0.1 μM, 1% Triton = 100%, once in triplicate", "result": "approximately 70%"},
      {"measurement": "cell toxicity", "setting": "[2]; 1.25 µM, 72 h", "result": "no cell toxicity"},
      {"measurement": "cell death", "setting": "[2]; 20 μM", "result": 20, "unit": "%"},
      {"measurement": "CC50 (50% cytotoxic concentration)", "setting": "[2]; 48 h incubation, SGR-Feo-JFH-1 Huh-7.5 cells, triplicate in three independent assays", "result": 34.95, "unit": "µM"},
      {"measurement": "CC50 72 h post-treatment", "setting": "[2]; 72 h, 1.25-40 µM", "result": 19, "unit": "µM"},
      {"measurement": "maximum non-toxic (safe) concentration in hepatocytes", "setting": "[2]; arbitrary threshold of 80% cell viability, 48 h", "result": 20, "unit": "µM"}
    ]}
  ]
}
